pKd: −log10 of the molar value. Values after ≈ are worked out from the molar mass of the structure shown. Like-named read-outs stand apart in the source and are kept apart here.
Assays:
[1] = target: T1, HSC70-NBD (Homo sapiens, UniProt P11142); test: SPR binding to wild-type HSC70-NBD
T1 construct: made in house
Procedure: (§1) The HSC70-NBD variants used in SPR were produced and purified as previously described. All surface plasmon resonance (SPR) experiments were carried out on a Biacore T100 enhanced to T200 sensitivity (GE Life Sciences, Amersham, UK), and amine coupling chemistry was used to immobilize the proteins on a research grade CM5 sensor chip. The running buffer was phosphate-buffered saline (10-mM NaHPO4-NaH2PO4, pH 7.4, 2.7-mM KCl and 137-mM NaCl), and the chip’s surface was activated for 10 min using a 1:1 mixture of 100-mM N-hydroxysuccinimide and 400-mM 1-ethyl-3-(3-dimethylaminopropyl)-carbodiimide. Wild-type HSC70-NBD and the S275W mutant proteins were injected for 10 min at a concentration of 2 μM in a 10-mM sodium acetate buffer, pH 5.0 with 100-μM ADP as protection for the active site lysines. Finally, the surface was blocked via an injection of 1 M ethanolamine, pH 8.5 for 7 min. The flow rate was maintained at 10 μL/min for all the above procedures. On average, ~12,000 response units (RU) of the wild-type and the mutant proteins were immobilized on the chip. Flow cell one was left unmodified as the reference surface. Following protein immobilization, the running buffer was changed to phosphate-buffered saline containing 0.05% Tween20 (v/v) and 5% DMSO.
(§2) To determine binding constants (KD) for the compounds, all liquid handling was carried out using an ECHO 550 acoustic liquid dispenser (Labcyte, Dublin, Ireland), and compounds were added to 384-well polypropylene V-bottomed plates (Greiner, Stonehouse, UK), which were used as sample plates for the SPR experiments. Fresh 100-mM DMSO stocks of each compound were prepared and used to generate eight-point concentration responses ranging from 25 μM to 1000 μM or from 6.25 μM to 500 μM. For adenosine, the concentration range was 50 μM–2000 μM from a 200-mM stock in DMSO, and for VER155008, a stock solution of 0.25 mM in DMSO was prepared with a concentration range of 0.0625–2.5 μM. The buffer mix was made compatible with the Biacore running buffer, and the experiments were performed at a flow rate of 30 μL/min, a sample injection time of 60 s and a dissociation time of 200 s. The CM5 surface was not regenerated between sample injections. Binding constants (KD) were calculated from the DMSO-corrected and background-normalized binding curves generated from the sensorgrams under equilibrium conditions using the 1:1 binding model in Biacore software version 2 (GE Life Sciences, Amersham, UK).

[2] = target: T2, S275W HSC70-NBD (Homo sapiens, UniProt P11142, S275W); test: SPR binding to S275W mutant HSC70-NBD
T2 construct: made in house
T2 sequence (P11142 2-386 S275W limits assumed): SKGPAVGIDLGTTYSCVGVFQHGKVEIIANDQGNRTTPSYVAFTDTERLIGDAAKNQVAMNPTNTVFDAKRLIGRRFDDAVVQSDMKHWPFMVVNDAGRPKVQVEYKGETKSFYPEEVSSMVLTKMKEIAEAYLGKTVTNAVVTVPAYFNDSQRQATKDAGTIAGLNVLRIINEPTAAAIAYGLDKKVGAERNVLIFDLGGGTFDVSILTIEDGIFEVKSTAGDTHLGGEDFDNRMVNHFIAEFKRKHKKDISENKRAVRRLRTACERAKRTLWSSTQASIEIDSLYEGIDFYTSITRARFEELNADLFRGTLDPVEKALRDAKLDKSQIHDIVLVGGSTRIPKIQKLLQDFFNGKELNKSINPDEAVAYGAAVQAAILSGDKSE
Procedure: as §1, §2

[3] = tested on: T3, HSP72-NBD; test: CPMG relaxation-edited ligand-observed 1H NMR binding and ATP competition; parameters: species or system human
T3 construct: GST (glutathione-S-transferase), PreScission site (N, cleaved yes); made in house; host or cells: BL21-AI E. coli
Procedure: (§3) To confirm the binding of compounds to HSP72-NBD, a series of CPMG and WaterLOGSY experiments were performed. Compounds were assayed at 200 μM in the presence or absence of 10-μM HSP72-NBD. […] of ATP were also included in the competition experiments. The total assay volume was 200 μL, and the experiments were performed in 3-mm NMR tubes. The buffer was 25-mM Tris, pH 7.5, 50-mM NaCl, 10% D2O and 100 μM of DTT in deionized water. NMR experiments were conducted at a ^1H frequency of 600 MHz using a Bruker Avance 600 spectrometer (Bruker, Bilerica, MA, USA) equipped with a 5-mm TCI Cryo-probe. All data were acquired and processed using Topspin (Bruker, Bilerica, MA, USA) and MNova (Mestrelab Research SL, Santiago de Compostela, Spain). The relaxation-edited 1H-NMR spectrum was acquired at 298 K using the CPMG sequence with a spin-lock time of 600 ms. The water signal was suppressed using pre-saturation during the relaxation delay (2 s) and by using the Watergate sequence subsequent to the CPMG sequence. For each spectrum, 64 transients were acquired.

[4] = tested on: T3, HSP72-NBD; test: waterLOGSY ligand-observed NMR binding; parameters: species or system human; settings: ligand 200 μM, HSP72-NBD 10 μM
Procedure: as §3

[5] = Kinetic solubility in pH 7.4 phosphate buffer by quantitative NMR; type: physicochemical; settings: phosphate-buffered saline with 5% DMSO, aqueous with cosolvent or surfactant or cyclodextrin, kinetic from dmso stock, NMR method
Procedure: Nine microliters of a 10-mM DMSO solution of 1 was pipetted into one well of a 384-deep well plate (Greiner, part-no. 781270). one hundred and seventy-one microliters of aqueous buffer (137-mM NaCl, 2.7-mM KCl and 10-mM phosphate buffer solution (pH 7.4)) were pipetted into the same well and mixed 3 times by pipette to give a 500-µM solution of 1 with 5% DMSO. The plate was centrifuged (1000 rpm for 1 min, Eppendorf 5810C) and then sealed and incubated at room temperature for 20 h without shaking. The plate was centrifuged (1000 rpm for 1 min, Eppendorf 5810R), and 165 µL of the supernatant was transferred to a 3-mm NMR tube (Bruker, Part No. Z112272) using a liquid handler SamplePro Tube SJ S (Bruker, Bilerica, MA, USA)). The concentration of 1 was measured by quantitative ^1H-NMR using a single external standard (200-µM caffeine (Sigma C1778, Merck Life Science UK, Gillingham, UK)) in PBS (pH 7.4) with 1% DMSO-d6). NMR data was collected on a Bruker Avance Neo 600 spectrometer equipped with a 5-mm TCI Cryo-probe. The ^1H spectrum was referenced to the internal deuterated solvent. The operating frequency for ^1H was 600 MHz. […] The quantitative ^1H-NMR spectrum was acquired using a Bruker standard 1D lc1pngppsf2 pulse sequence with 32 scans. […] The quantitative 1H-NMR data analysis was carried out in Mnova 14.1 (Mestrelab Research SL, Santiago de Compostela, Spain).

[6] = Aggregation check in LO-NMR experiments; type: physicochemical; settings: tested concentration 200 µM
Procedure: as §3

[7] = target: T2, S275W HSC70-NBD; parameters: method as in PMID 27708405; settings: S275W mutation; cited from earlier work
[8] = target: HSP70; parameters: method as in PMID 19256508; settings: cited from earlier work
[9] = mean (±SD), n = 3 unless marked n = 2, read-out: HSC70-NBD SPR KD
[10] = n = 2 determinations unless marked single, read-out: HSC70-NBD S275W SPR KD

T1 sequence (P11142 2-386 limits assumed): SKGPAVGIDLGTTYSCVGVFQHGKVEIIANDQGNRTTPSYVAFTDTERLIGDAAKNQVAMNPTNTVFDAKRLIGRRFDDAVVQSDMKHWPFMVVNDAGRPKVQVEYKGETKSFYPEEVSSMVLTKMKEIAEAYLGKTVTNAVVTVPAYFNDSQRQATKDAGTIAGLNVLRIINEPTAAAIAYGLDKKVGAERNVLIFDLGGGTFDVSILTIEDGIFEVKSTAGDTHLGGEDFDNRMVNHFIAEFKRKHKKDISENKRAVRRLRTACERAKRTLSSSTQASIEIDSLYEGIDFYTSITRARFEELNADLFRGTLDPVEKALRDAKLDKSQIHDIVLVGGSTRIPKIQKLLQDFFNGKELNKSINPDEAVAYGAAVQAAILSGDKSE

c1ccc(-c2ccc(Cn3nnnc3N3CCCC(c4ncc[nH]4)C3)cc2)cc1 (stereo not shown) [Compound 6]
pKd [1, 9]: 4.89
Ligand Efficiency ([1]; vHTS hits, HSC70-NBD): 0.24 kcal/mol per heavy atom
pKd [2, 10]: 4.92

NC(=O)N1CCN(c2nc(-c3ccc(C#CCN4CCOCC4)cc3)cs2)CC1 [Compound 3, 4-[4-[4-(3-Morpholinoprop-1-ynyl)phenyl]thiazol-2-yl]piperazine-1-carboxamide]
pKd ([1]; SPR, WT HSC70-NBD, single determination, read-out: KD HSC70-NBD): 3.41
Ligand Efficiency ([1]; calculated for binding to WT HSC70-NBD): 0.16 kcal/mol per heavy atom
pKd ([2]; SPR, single determination, read-out: KD S275W HSC70): 3.45
Change in NMR signal intensity for 3, Peak a ([3]; 3 + HSP72-NBD): 41%
Change in NMR signal intensity for 3, Peak b ([3]; 3 + HSP72-NBD): 36%
Change in NMR signal intensity for 3, Peak c ([3]; 3 + HSP72-NBD): 31%
Change in NMR signal intensity for 3, Peak a ([3]; 3 + HSP72-NBD + ATP): 5%
Change in NMR signal intensity for 3, Peak b ([3]; 3 + HSP72-NBD + ATP): 22%
Change in NMR signal intensity for 3, Peak c ([3]; 3 + HSP72-NBD + ATP): 7%

COc1cccc(-c2cc(CNC(=O)c3c(C)oc4c3C(=O)CCC4)on2)c1 [Compound 8]
pKd [1, 9]: 4.00
Ligand Efficiency ([1]; vHTS hits, HSC70-NBD): 0.2 kcal/mol per heavy atom
pKd [2, 10]: 4.07

CC(C)(O)C#Cc1cccc(C(=O)NCc2ccc(-n3cncn3)cc2)c1 [Compound 5]
pKd [1, 9]: 3.53
Ligand Efficiency ([1]; vHTS hits, HSC70-NBD): 0.19 kcal/mol per heavy atom
pKd [2, 10]: 3.75

NC(=O)N1CCN(c2nc(-c3ccccc3)cs2)CC1 [Compound 1, 4-(4-Phenylthiazol-2-yl)piperazine-1-carboxamide]
SPR binding behaviour (Langmuir isotherm) ([1]; concentration-response SPR, HSC70-NBD): non-saturating behavior
Reduction in 1H NMR peak intensity relative to 1 alone, Peak a ([3]; 1 (200 μM) + HSP72-NBD (10 μM), thiazole C5 proton): 58%
Reduction in 1H NMR peak intensity relative to 1 alone, Peak b ([3]; 1 + HSP72-NBD): 7%
Reduction in 1H NMR peak intensity relative to 1 alone, Peak c ([3]; 1 + HSP72-NBD): 14%
Reduction in 1H NMR peak intensity relative to 1 alone, Peak d ([3]; 1 + HSP72-NBD): 13%
Reduction in 1H NMR peak intensity relative to 1 alone, Peak a ([3]; 1 + HSP72-NBD + ATP): 8%
Reduction in 1H NMR peak intensity relative to 1 alone, Peak b ([3]; 1 + HSP72-NBD + ATP): 12%
Reduction in 1H NMR peak intensity relative to 1 alone, Peak c ([3]; 1 + HSP72-NBD + ATP): 2%
Reduction in 1H NMR peak intensity relative to 1 alone, Peak d ([3]; 1 + HSP72-NBD + ATP): 2%
waterLOGSY NOE sign inversion on addition of HSP72-NBD [4]: binding to the protein
solubility kinetic at 20 h [5]: 291 µM (≈ 83.9 µg/mL)
Aggregation in LO-NMR experiments [6]: did not show aggregation
melting point: 131 °C (dec.)

Nc1ncnc2c1ncn2[C@@H]1O[C@H](CO)[C@@H](O)[C@H]1O [adenosine]
Binding of adenosine to S275W mutant by SPR [7]: abolished

N#Cc1ccc(COC[C@H]2O[C@@H](n3c(NCc4ccc(Cl)c(Cl)c4)nc4c(N)ncnc43)[C@H](O)[C@@H]2O)cc1 [VER-155008]
pKd [8]: 6.30

CNc1nc(C)cc(-c2cccc(C(=O)NCCc3ccc(C)o3)c2)n1 [Compound 7]
pKd [1, 9]: 3.87
Ligand Efficiency ([1]; vHTS hits, HSC70-NBD): 0.21 kcal/mol per heavy atom
pKd [2, 10]: 3.80

CC(C)c1csc(CCNC(=O)c2cccc(-c3cncc(O)n3)c2)n1 [Compound 4]
pKd [1, 9]: 3.39
Ligand Efficiency ([1]; vHTS hits, HSC70-NBD): 0.18 kcal/mol per heavy atom
pKd [2, 10]: 3.41

Nc1ncnc2c1ncn2[C@@H]1O[C@H](COP(=O)(O)OP(=O)(O)O)[C@@H](O)[C@H]1O [ADP]
pKd [8]: 6.30
